“Also recorded” adds a separate entry of the source.
What was measured:
[1] = Evaluation of solubility and gelling ability (critical gelation concentration, sample tube inversion method); type: physicochemical
Description: The amide alcohol and each liquid were heated and mixed, and the critical gelation concentration was measured by sample tube inversion method.
Sample tube used: used tube: Maruemu screw tube No. 7 (trunk diameter 35 mm, total length 78 mm)

[2] = Solubility of glycerin with various alcohols

SMILES | solubility and gelling ability ([1]; Ethanol) | behaviour with glycerin (in words) ([1]; Glycerin) | solubility and gelling ability ([1]; Octyldodecanol) | solubility and gelling ability ([1]; Squalane) | behaviour with water (in words) ([1]; Water) | solubility and gelling ability ([1]; Water) | behaviour with ester oil (in words) [1] | concentration for thickening ([1]; Glycerin) | behaviour with glycerin (in words) ([1]; Glycerin, listed as 4HN CHBA) | concentration for thickening ([1]; Octyldodecanol) | solubility and gelling ability ([1]; Octyldodecyl myristate) | solubility and gelling ability ([1]; Triethylhexanoin) | solubility and gelling ability ([1]; Glycerin) | solubility with glycerin (in words) [2]
CCCCCCCCNC(=O)CCCO [4HN-OBA, 4-hydroxy-N-octyl, butyramide] | S | gelled; also recorded: thickening/gelation | S | I | solubility in water | S | gelled | – | – | – | – | – | – | –
O=C(CCCO)NC1CCCCC1 [4HN-CHBA, 4-hydroxy-N-cyclohexyl, butyramide] | S | thickened | – | I | solubility in water | S | – | (≥12 wt %) | thickening/gelation | (≥18 wt %) | I | I | – | –
CCCCCCCC/C=C\CCCCCCCCNC(=O)CCCO [4HN-OLBA, 4-hydroxy-N-oleyl, butyramide] | S | – | S | – | – | I | – | – | – | – | – | – | I | –
CCCCCCCCCCCCCCCCCCNC(=O)CCCO [4HN-STBA, 4-hydroxy-N-stearyl, butyramide] | I | – | – | – | – | I | – | – | – | – | – | – | I | –
CCCCC(CC)CNC(=O)CCCO (centres unmarked) [4HN-EHBA, 4-hydroxy-N-2-ethylhexyl, butyramide] | S | – | S | I | – | I | – | – | – | – | S | I | S | can be dissolved

The next lines start with the values.

solubility and gelling ability ([1]; Ethanol) | behaviour with glycerin (in words) ([1]; Glycerin) | solubility and gelling ability ([1]; Octyldodecanol) | solubility and gelling ability ([1]; Squalane) | behaviour with water (in words) ([1]; Water) | solubility and gelling ability ([1]; Water) | behaviour with ester oil (in words) [1] | concentration for thickening ([1]; Glycerin) | behaviour with glycerin (in words) ([1]; Glycerin, listed as 4HN CHBA) | concentration for thickening ([1]; Octyldodecanol) | solubility and gelling ability ([1]; Octyldodecyl myristate) | solubility and gelling ability ([1]; Triethylhexanoin) | solubility and gelling ability ([1]; Glycerin) | solubility with glycerin (in words) [2] | SMILES
S | gelled | – | – | emulsification-gelled | – | gelled | – | – | – | – | – | – | – | CCCCCCCCCCCCNC(=O)CCCO [4HN-LBA, 4-hydroxy-N-lauryl, butyramide]
S | – | – | – | – | – | – | – | – | – | – | – | I | – | CCCCCCCCCCCCCCNC(=O)CCCO [4HN-MBA, 4-hydroxy-N-myristyl, butyramide]
S | – | – | – | – | I | – | – | – | – | – | – | I | – | CCCCCCCCCCCCNC(=O)CCCCCO [6HN-LHA, 6-hydroxy-N-lauryl, hexylamide]
